Experimental data published in US5545648A (Canadian Spinal Research Organization, priority 1992, dated 1996).
Where “and” joins values, the source holds several entries; their conditions need not be identical. Identical values can stand only once. Entries after “also recorded” stand apart in the source; their conditions may differ.

Legend:
[1] = tested on: spinal cord injured patients; assay: Vibration sensation score; assay type: in vivo, human
Description: (§1) The schedule of each trial was the same. The patient was admitted to the hospital on the preceding day and in the early morning was assessed by neurological examination and electro-diagnostic evaluation. Administration of the drug or placebo, through an in dwelling venous catheter, was then begun and continued for approximately 2 hours, arranged in 20 minute sequences based on delivery of 1 ml aliquots of the 4-AP solution. The patient was monitored electroencephalographically at frequent intervals throughout the procedure. Samples of blood and urine were obtained from an additional intravenous catheter and from the urinary catheter respectively. Blood was obtained at intervals up to 5 hours from the beginning of drug delivery and urine obtained pre-infusion and at 1 and 2 hours after the beginning of infusion. The patients were re-evaluated by complete neurological examination, by the same examiner, at the end of the period of drug delivery. They were then re-examined with the electrodiagnostic tests. A more limited neurological examination was sometimes performed during drug delivery in an attempt to identify any early changes, without producing significant testing fatigue. The electrodiagnostic tests were repeated at 2 hours after the cessation of drug delivery. Patients showing apparent effects of the treatment remained in the hospital overnight and were examined on the following day. Subsequent contact with the patients was by telephone interview or as a result of their correspondence regarding longer term changes associated with their treatment.
Patients were evaluated using a modified form of the American Spinal Injury Association (ASIA) Standards for Neurological Classification of Spinal Injury Patients (revised 1990). The modifications were mainly required to simplify the examination so that it could be performed on patients lying on a bed with intravenous catheters, electrodes and urethral catheters restricting the range of motion. Examinations performed after the day of drug delivery were made on an outpatient basis with the subjects partially clothed, and evaluation of dermatomes was sometimes incomplete. Each part of the examination was videotaped for later review and was repeated on the two sides of the body.
Sensory abilities were graded on an analogous 0-4 point scale:
The sensory modalities tested were light touch, pinprick, vibration, joint position, and temperature. The dermatomes tested for touch and pinprick were: C5,6,7,8, T1,T7-9,L1,2,3,4,5, and S1, giving a total possible score of 96 for each modality. Vibration sensation was usually tested bilaterally, at the shoulder, elbow, knee and ankle. Temperature sensation was tested, with the subject's eyes closed, by blowing cool air from a distance or breathing warm air in close proximity on the dorsal surface of the hands and feet. Joint position sense was examined with the subject's eyes closed, by imposed flexion and extension movements of the thumb and great toe. The total possible score for the full sensory examination was 256 points.
Though the examiners assigned half point scores in cases where they felt that subjects fell between score categories, any half point differences between pre- and post-infusion scores have been ignored in this analysis. Also omitted from this tabulation are the scores for vibration sensation, which are shown separately in Table 3. […]

[2] = tested on: spinal cord injured patients; assay: Deep tendon (segmental) reflex score; assay type: in vivo, human
Description: as §1
Segmental reflexes (biceps, triceps, knee- and ankle-jerk) were evaluated in the conventional manner with a reflex hammer and scored on a 0-4 point scale:
0--no detectable response
2--brisk response of normal amplitude
3--abnormally large amplitude response
4--large amplitude response with some clonus.
The total possible score in a patient with hyperreflexia and clonus in all tested muscles was 32.

[3] = tested on: spinal cord injured patients; assay: Electrodiagnostic testing (nerve conduction, electromyography, somatosensory evoked potentials); assay type: in vivo, human
Description: as §1
(§2) Immediately before and after the infusion of 4-AP or placebo, and at approximately 2 hours after the end of the infusion, patients were evaluated with a set of standard electro-diagnostic tests: conduction in peroneal, posterior tibial and sural nerves, electromyography of tibial is anterior and gastroc-nemius muscles during rest and maximal voluntary contraction, and somatosensory evoked potentials. Patients were also monitored with electroencephalography, at intervals during the infusion, to look for evidence of potential for seizure activity.

[4] = tested on: spinal cord injured patients; assay: Negative side-effects, EEG and vital sign monitoring; assay type: in vivo, human
Description: as §1, §2

[5] = tested on: spinal cord injured patients; assay: Effects reported by the subjects and overall clinical benefit (function, chronic pain, spasticity); assay type: in vivo, human
Description: The experimental design was a double-blind, placebo-controlled, crossover study in which each patient was administered the drug and a vehicle control on different occasions, separated by two weeks. The order of delivery was randomized.
as §1
Two of the patients who reported more prolonged effects of the drug were returned to the hospital after 4 months for a second, unblinded trial, which included neurological examinations daily for 3-4 days. Plasma samples were also obtained daily from these two patients, for measurement of 4-AP.

[6] = tested on: animals with experimental or naturally occurring spinal cord injuries; conditions: intravenous injection; cited from earlier work
[7] = tested on: spinal cord injury patients; conditions: cited from earlier work
potassium channels = conditions: cited from earlier work
[8] = tested on: synaptic transmission in the spinal cord; conditions: relatively high concentrations; cited from earlier work
[9] = tested on: multiple sclerosis patients; conditions: cited from earlier work
[10] = 2 hours after infusion of 4-AP, total of subjects
[11] = 2 hours after infusion of 4-AP, total possible 32, one line per subject: b182 RB, SC, HT, LJ, EB, b187 GCh, AW, b189 GCu
[12] = subject named in the block (LJ; EB; GCh; AW)

## Nc1ccncc1 [4-AP, 4-aminopyridine]
[1]; [10]
  change in total score for vibration sensation, +ve, TOTAL: +1
  change in total score for vibration sensation, -ve, TOTAL: -12
[1]; [11]
  change in total score for vibration sensation, +ve: 0 and +1
  change in total score for vibration sensation, -ve: 0 and -7 and -4 and -2
[1]; after 4-AP infusion, three subjects
  vibration sensation score (in words): scores in three subjects decreased substantially
[2]; 24 and 48 hours, EB, GCh
  deep tendon reflex scores at 24 and 48 hours: slight reductions in deep tendon reflex scores at 24 and 48 hours after infusion
[2]; [10]
  change in score for deep tendon reflexes, arms, TOTAL: +13
  change in score for deep tendon reflexes, legs, TOTAL: +2
[2]; 2 hours after infusion of 4-AP, total possible 32, subject one, SC, HT, GCh, AW, GCu
  change in score for deep tendon reflexes, legs: +2 and +1 and -2 and 0 and +3
[2]; 2 hours after infusion of 4-AP, total possible 32, subject one, SC, HT, GCh, GCu
  change in score for deep tendon reflexes, arms: +4 and +1 and 0
[2]; 24 hours, AW, LJ
  reflex responses at 24 hours: reduced reflex responses
[2]; predominantly in the arms
  deep tendon reflex amplitude immediately after infusion: marked tendency for increase in amplitude of deep tendon reflexes
[3]; after 4-AP
  electromyographic data: consistent with observed changes in strength of muscle contraction
  peripheral nerve conduction: No consistent effects on peripheral nerve conduction
[3]; six subjects, before or after injection
  somatosensory evoked potentials (posterior tibial nerve stimulation), no detectable response: no detectable somatosensory evoked potentials
[3]; subjects, following 4-AP
  form or amplitude of somatosensory evoked potentials: did not change significantly in form or amplitude
[4]; arm in which the drug was infused
  most frequent side effect: arm discomfort: discomfort in the arm in which the drug was infused
[4]; during infusion
  adverse indications on EEG and vital signs: No adverse indications were detected
[4]; subject four
  duration of warm sensation under the skin from neck to back: two days
[4]; [12]
  side effects in individual subject: pain in the left arm, and some nausea and light-headedness; also recorded: "warm sensation under the skin from neck to back" for two days and an episode of constipation; also recorded: no negative side effects; also recorded: After 21 mg of the infusion, their arm became quite painful and they became anxious, then angry, and began to show alternative bouts of sweating and shivering
[4]; subject two, 25 mg rather than planned 30 mg
  infusion suspended / not completed: Infusion was suspended in this case because of a combination of discomfort in the arm at the site of infusion, and a significant degree of agitation and anxiety
[5]; 4 months later, two subjects GCh, EB
  reproduction of effects at second administration: effects and side effects similar to those seen in the earlier, blinded administration; also recorded: the effects were reproduced by a second administration of the drug 4 months later in two of the subjects
[5]; after infusion, subject gamma
  return to usual state: ≤ 3 days
[5]; day after infusion, subject beta
  increase in strength of arms and right leg, reported by subject: about 25%
[5]; five patients with less complete injuries
  delayed or prolonged effects reported: all reported some delayed or prolonged effects
[5]; human, in vivo
  duration of self-sustaining changes in the nervous system: 1 to 2 days
  patients desiring to receive the drug regularly: four of the patients expressed a strong desire to be able to receive the drug on a regular basis
  reduced usage of analgesic: greatly reduced usage of analgesic in one case
  reduced usage of antispastic medication: antispastic medication in at least two cases
  relation between side-effects and apparent benefit: no relation between the appearance of side-effects and apparent benefit
[5]; remaining 5 subjects
  motor and/or sensory effects in incomplete injuries: showed motor and/or sensory effects
[5]; second infusion, subject gamma
  duration of markedly reduced spasticity: more than 24 hours
[5]; some subjects
  duration of improved function: over 48 hours
[5]; spinal cord injured individuals
  reduction of chronic pain and spasticity, motor control and sensory ability (overall): relief of chronic pain and spasticity; also recorded: can increase motor control and sensory ability and reduce chronic pain and spasticity; also recorded: long lasting reductions in spasticity and in chronic pain and dysesthesias; also recorded: shown to reduce chronic pain and spasticity in certain individuals
[5]; spinal cord injury patients
  proportion of patients with incomplete injury showing benefit: 5 of 6 and 5 of the 6
[5]; subject four
  duration of reduction in spasticity: three days
  dysesthesia (persistent itch in one shoulder): no change in this condition
  return to normal requirement for Baclofen: only returned to their normal requirement for Baclofen on the fourth day
[5]; subject four, normally a few flickers
  finger movements back and forth, left hand: 20-30 times
[5]; subject gamma
  duration of absence of pain in the legs: at least 2 days
[5]; [12]
  sensation, reported by subject: more sensation below the level of injury; also recorded: remarkable return of sensation below the level of the injury to virtually normal sensation on both sides; also recorded: marked improvement in sensation below the lesion; also recorded: increased sensation; also recorded: more sensation and strength in their legs
[5]; subject named in the block (LJ; GCh; GCu)
  chronic pain / paresthesia, reported by subject: The usual burning pain they experienced in their buttocks was absent, though there was still some burning in their lower limbs, which had increased; also recorded: the pain in the legs was absent, though it remained to some extent in their feet; also recorded: reduction of chronic pain; also recorded: significant reduction in the usual tingling paresthesia in their hands
[5]; subject named in the block (b79 LJ; b81 EB; b83, b84 GCh; b86 AW; b88 GCu)
  movement / motor power, reported by subject: slightly greater movement in one thumb and index finger; also recorded: increased motor power in the left arm and leg; also recorded: greater endurance; also recorded: motor endurance below the level of the injury; also recorded: improved strength and sensation in their legs; also recorded: their arms and right leg had been stronger
[5]; subject named in the block (b81 EB; b83, b84 GCh)
  spasticity: marked reduction in spasticity; also recorded: decrease in spasticity
[5]; subject two
  breathing: marked improvement in breathing
  duration of motor and sensory effects incl. improved breathing: about 2 days
  infused dose at which lower limb strength increased: 8 mg
[5]; subjects, predominantly proximal in the limb
  relief of chronic, painful dysesthesias below the lesion: considerable relief
[5]; two patients
  beneficial effects in neurologically complete lesions: Two patients with neurologically "complete" spinal cord lesions showed no beneficial effects
[6]
  electrophysiological and behavioral function: significant improvements in electrophysiological (Blight and Gruner, 1987) and behavioral function
[7]; human, in vivo
  serious side effects: lack of serious side effects
[7]; mostly electrophysiological level
  therapeutic benefit: modest therapeutic benefit
Potassium channels
  spontaneous activity of injured nerve fibres on potassium channel blockade: tends to produce or enhance such spontaneous activity and to elicit "burst" (multiple action potential) responses
[8]
  synaptic transmission in the spinal cord: enhance synaptic transmission in the spinal cord
[9]
  motor strength and sensory deficits: selective increases in motor strength and recovery of sensory deficits
